We go through 17 molecules from patent publication US20230043863A1, “HETEROAROMATIC DERIVATIVES FOR USE AS REGULATOR, PREPARATION METHOD THEREFOR AND USE THEREOF” (JIANGSU HANSOH PHARMACEUTICAL GROUP CO., LTD., priority 2018, published 2023).

In one assay the target is TYK2 (Homo sapiens, UniProt P29597). As to the kind of experiment: JAK kinase activity inhibition, TR-FRET (TYK2). It is filed as biochemical. The following applies: TR-FRET kinase assay. How it is done: (§1) Experimental objective: The objective of this test is to test the inhibitory effect of the compound on JAK kinase activity.
Chain of TYK2 (P29597 whole entry): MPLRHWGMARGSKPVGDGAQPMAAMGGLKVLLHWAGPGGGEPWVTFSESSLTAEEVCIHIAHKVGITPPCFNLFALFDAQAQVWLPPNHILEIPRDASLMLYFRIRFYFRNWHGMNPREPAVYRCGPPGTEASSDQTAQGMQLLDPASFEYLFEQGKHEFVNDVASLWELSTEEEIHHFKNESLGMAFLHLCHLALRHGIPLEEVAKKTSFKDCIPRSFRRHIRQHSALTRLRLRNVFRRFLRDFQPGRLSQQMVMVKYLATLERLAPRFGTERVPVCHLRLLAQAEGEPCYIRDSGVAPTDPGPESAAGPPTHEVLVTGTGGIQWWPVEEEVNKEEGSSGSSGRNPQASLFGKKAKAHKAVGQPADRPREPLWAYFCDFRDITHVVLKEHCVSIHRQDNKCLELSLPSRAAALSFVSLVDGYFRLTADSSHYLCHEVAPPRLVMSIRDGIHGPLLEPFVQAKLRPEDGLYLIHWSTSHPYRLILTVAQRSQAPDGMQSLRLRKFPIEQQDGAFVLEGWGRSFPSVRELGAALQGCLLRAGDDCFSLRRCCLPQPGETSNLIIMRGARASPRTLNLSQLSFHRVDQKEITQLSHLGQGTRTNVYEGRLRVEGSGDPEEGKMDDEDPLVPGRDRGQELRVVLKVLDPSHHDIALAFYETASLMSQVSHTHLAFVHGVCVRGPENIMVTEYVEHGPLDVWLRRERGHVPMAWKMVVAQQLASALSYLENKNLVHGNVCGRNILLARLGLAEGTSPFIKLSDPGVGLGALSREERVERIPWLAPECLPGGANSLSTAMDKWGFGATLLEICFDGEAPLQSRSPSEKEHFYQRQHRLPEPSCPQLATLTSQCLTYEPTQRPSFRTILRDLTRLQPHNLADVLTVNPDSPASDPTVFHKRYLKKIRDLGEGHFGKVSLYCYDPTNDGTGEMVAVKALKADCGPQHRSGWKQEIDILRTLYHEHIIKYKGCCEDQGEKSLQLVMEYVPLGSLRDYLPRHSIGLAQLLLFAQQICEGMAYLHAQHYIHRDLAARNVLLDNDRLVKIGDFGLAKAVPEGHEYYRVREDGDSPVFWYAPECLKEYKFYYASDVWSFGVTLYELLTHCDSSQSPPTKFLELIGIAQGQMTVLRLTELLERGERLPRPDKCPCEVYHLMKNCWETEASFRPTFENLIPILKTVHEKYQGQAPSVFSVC
(§2) Experimental method: the fluorescence resonance energy transfer (TR-FRET) method was used to test the inhibitory effect of the compound on JAK kinase activity, and the half inhibitory concentration IC50 of the compound on JAK kinase activity was obtained.
(§3) Kinase reaction was carried out in a white 384-well plate (PerkinElmer). 1-5 μL of different concentrations of the compound diluted with DMSO and ddH2O was added into each well, and 1-5 μL of the corresponding solvent was added to the positive control wells, followed by addition of 0.1-20 nM JAK kinase solution diluted with 1-5 μL of kinase buffer (HEPES 50-250 mM, MgCl2 5-20 mM, etc.) was added to each well. 1-5 μL of kinase buffer was added to the negative control well. 1-5 μL of substrate mixture containing peptide substrate and ATP was added. The plate was incubated at room temperature for 0.5-5 hours. […], EDTA and detection solution containing labeled antibody was added, and then the plate was incubated at room temperature for another 1-24 hours. The fluorescence signal value at about 620 nm and 665 nm of each well was measured by BioTek Synergy H1 plate reader, and the inhibition rate was calculated by the fluorescence signal value. According to the inhibition rate of different concentrations, the IC50 of the compound was obtained by curve fitting.
(§4) The percentage inhibition data of the wells treated with the compound was calculated with the positive control wells (DMSO control wells) and negative control wells (no kinase added) on the plate {% inhibition rate=100-[(test compound value-negative control value)]/(Positive control value-negative control value)×100}. IC50 value was calculated by using GraphPad prism to fit the data of different concentrations and corresponding percentage inhibition rates to a 4-parameter non-linear logic formula.

Assay [1] concerns JAK-STAT signal pathway of U266 cells. Nature of the assay: Inhibition of cellular JAK-STAT signal pathway (STAT3 phosphorylation) in U266 cells. It is filed as cell-based, human. On the procedure: The objective of the test is to test the inhibitory activity of the compound on the cellular JAK-STAT signaling pathway.
U266 cell line was used in this experiment, by activating the JAK-STAT signaling pathway through INF-a stimulation, the inhibitory activity of the compound on its downstream STAT3 phosphorylation was detected, and the half inhibitory concentration IC50 of the compound on the JAK-STAT signaling pathway activity was obtained.
3-12 μL of U266 cell line was spread into the 384-well detection plate, and the number of cells in each well was 100-300 K, followed by addition of 2 μL of the compound solution serially diluted. The plate was incubated for 2 hours with shaking at 350 rpm at room temperature. After 2 hours, 2 μL of INF-a with a final concentration of 1000 U/mL was added. The plate was shaken at room temperature for 15 minutes. 2-5 μL (5×) LANCE Ultra Lysis Buffer 2 solution was added and the plate was shaken at room temperature for 2 hours. After 2 hours, 5 μL of LANCE Ultra Eu-labeled Anti-STAT3 Antibody (PerkinElmer) with a final concentration of 0.5 nM and LANCE Ultra ULight-labeled Anti-STAT3 Antibody (PerkinElmer) with a final concentration of 5 nM were added, and the plate was incubated overnight at room temperature. The fluorescence signal value at 665 nm of each well was measured with the microplate reader, and the inhibition rate was calculated from the fluorescence signal value. According to the inhibition rate of different concentrations, the IC50 of the compound was obtained by curve fitting.
as §4

The next assay deals with JAK1 (Homo sapiens, UniProt P23458). As to the kind of experiment: JAK kinase activity inhibition, TR-FRET (JAK1). The assay is classed as biochemical. The note with it: TR-FRET kinase assay. How it is done: as §1, §2, §3, §4
Chain of JAK1 (P23458 whole entry): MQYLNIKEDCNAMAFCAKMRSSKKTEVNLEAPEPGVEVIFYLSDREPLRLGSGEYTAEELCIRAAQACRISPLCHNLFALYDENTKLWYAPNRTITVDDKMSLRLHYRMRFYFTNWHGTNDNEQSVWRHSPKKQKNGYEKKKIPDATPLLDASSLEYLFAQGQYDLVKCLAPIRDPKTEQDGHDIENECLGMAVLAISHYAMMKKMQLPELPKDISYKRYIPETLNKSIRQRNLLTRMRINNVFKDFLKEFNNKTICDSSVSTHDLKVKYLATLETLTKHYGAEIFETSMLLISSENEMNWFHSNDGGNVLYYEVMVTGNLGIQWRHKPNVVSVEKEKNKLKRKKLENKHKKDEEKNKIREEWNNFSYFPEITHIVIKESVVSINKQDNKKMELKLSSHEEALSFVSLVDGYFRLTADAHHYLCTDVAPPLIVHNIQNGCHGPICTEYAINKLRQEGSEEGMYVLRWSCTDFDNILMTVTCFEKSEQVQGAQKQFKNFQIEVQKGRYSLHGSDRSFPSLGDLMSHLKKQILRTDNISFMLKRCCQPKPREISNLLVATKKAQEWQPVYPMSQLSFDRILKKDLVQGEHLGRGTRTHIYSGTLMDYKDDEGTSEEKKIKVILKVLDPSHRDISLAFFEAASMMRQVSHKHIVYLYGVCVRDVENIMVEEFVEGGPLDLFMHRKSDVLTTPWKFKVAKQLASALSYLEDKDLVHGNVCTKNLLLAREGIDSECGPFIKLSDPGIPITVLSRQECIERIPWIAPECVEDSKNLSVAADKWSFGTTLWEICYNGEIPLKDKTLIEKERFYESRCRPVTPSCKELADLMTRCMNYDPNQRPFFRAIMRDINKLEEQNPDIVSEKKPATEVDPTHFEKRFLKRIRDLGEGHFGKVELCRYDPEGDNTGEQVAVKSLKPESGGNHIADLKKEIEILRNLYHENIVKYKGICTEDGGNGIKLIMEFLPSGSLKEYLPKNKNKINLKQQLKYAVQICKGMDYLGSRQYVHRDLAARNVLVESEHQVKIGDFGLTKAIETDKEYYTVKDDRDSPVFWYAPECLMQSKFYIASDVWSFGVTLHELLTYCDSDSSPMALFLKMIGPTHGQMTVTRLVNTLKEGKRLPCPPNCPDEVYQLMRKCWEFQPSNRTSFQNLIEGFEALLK
The mark [2] stands for this setting: Homo sapiens, U-266, INF-a 1000 U/mL stimulation.

With `CCc1cc(Nc2cc3ncccc3c(N[C@@H]3C[C@H]4CC[C@@H](C3)N4CCC#N)n2)n[nH]1` [Embodiment 11, 3-((3-exo)-3-((7-((5-ethyl-1H-pyrazol-3-yl)amino)-1,6-diazanaphthalen-5-yl)amino)-8-azabicyclo[3.2.1]oct-8-yl)propionitrile], the half-inhibitory concentration (IC50) stood at 9.13 nM at TYK2, 4.77 nM in assay [1] (setting [2]) and 0.3 nM on JAK1.
Turning to `Cc1cc(Nc2nc(N[C@@H]3C[C@H]4CC[C@@H](C3)N4CCC#N)nc3scnc23)n[nH]1` [Embodiment 66, 3-((3-exo)-3-((7-((5-methyl-1H-pyrazol-3-yl)amino)thiazolo[5,4-d]pyrimidin-5-yl)amino)-8-azabicyclo[3.2.1]oct-8-yl)propionitrile], the IC50 came out at 1.49 nM at TYK2, 4.06 nM in assay [1] (setting [2]) and 3.02 nM on JAK1.
Taken in the same sequence, the figures for `Cc1cc(Nc2nc(N[C@@H]3C[C@H]4CC[C@@H](C3)N4CCC#N)c3cccn3n2)n[nH]1` [Embodiment 72, 3-((3-exo)-3-((2-((5-methyl-1H-pyrazol-3-yl)amino)pyrrolo[2,1-f][1,2,4]triazin-4-yl)amino)-8-azabicyclo[3.2.1]oct-8-yl)propionitrile] were 16 nM, 5.39 nM and 4.32 nM.
Taken in the same sequence, the figures for `Cc1cc(Nc2cc3nccnc3c(N[C@@H]3C[C@H]4CC[C@@H](C3)N4CCC#N)n2)n[nH]1` [Embodiment 88, 3-((3-exo)-3-((7-((5-methyl-1H-pyrazol-3-yl)amino)pyrido[3,4-b]pyrazin-5-yl)amino)-8-azabicyclo[3.2.1]oct-8-yl)propionitrile] were 3.53 nM, 3.1 nM and 1.75 nM.
Taken in the same sequence, the figures for `Cc1cc(Nc2cc3ncccc3c(N(C)[C@@H]3C[C@H]4CC[C@@H](C3)N4CCC#N)n2)n[nH]1` [Embodiment 111, 3-((3-exo)-3-(methyl(7-((5-methyl-1H-pyrazol-3-yl)amino)-1,6-diazanaphthalen-5-yl)amino)-8-azabicyclo[3.2.1]oct-8-yl)propionitrile] were 1.63 nM, 2.93 nM and 5.69 nM.
Regarding `N#CCCN1[C@@H]2CCC[C@H]1C[C@H](Nc1nc(Nc3ncc(CO)s3)cc3ncccc13)C2` [Embodiment 163, 3-((3-exo)-3-((7-((5-(hydroxymethyl)thiazol-2-yl)amino)-1,6-diazanaphthalen-5-yl)amino)-9-azabicyclo[3.3.1]non-9-yl)propionitrile], the IC50 on TYK2 was found to be 24.4 nM; in assay [1] (setting [2]), 52.6 nM; on JAK1, 0.45 nM.
As to `O=C(C(F)F)N1[C@@H]2CC[C@H]1C[C@H](Nc1nc(Nc3ncc(CO)s3)cc3ncccc13)C2` [Embodiment 166, 2,2-difluoro-1-((3-exo)-3-((7-((5-(hydroxymethyl)thiazol-2-yl)amino)-1,6-diazanaphthalen-5-yl)amino)-8-azabicyclo[3.2.1]oct-8-yl)ethane-1-one], the IC50 at TYK2 came to 9.31 nM; in assay [1] (setting [2]), 26.7 nM; on JAK1, 0.19 nM.
Taken in the same sequence, the figures for `OCc1cnc(Nc2cc3ncccc3c(N[C@@H]3C[C@H]4CC[C@@H](C3)N4CCF)n2)s1` [Embodiment 167, (2-((5-(((3-exo)-8-(2-fluoroethyl)-8-azabicyclo[3.2.1]oct-3-yl)amino)-1,6-diazanaphthalen-7-yl)amino)thiazol-5-yl)methanol] were 7.28 nM, 14.8 nM and 2.55 nM.
Taken in the same sequence, the figures for `Cc1cc(Nc2nc(N[C@@H]3C[C@H]4CC[C@@H](C3)N4CCC#N)nc3cccnc23)n[nH]1` [Embodiment 174, 3-((3-exo)-3-((4-((5-methyl-1H-pyrazol-3-yl)amino)pyrido[3,2-d]pyrimidin-2-yl)amino)-8-azabicyclo[3.2.1]oct-8-yl)propionitrile] were 1.88 nM, 0.42 nM and 2.73 nM.
As for `Cc1cc(Nc2nc(N[C@@H]3C[C@H]4CC[C@@H](C3)N4S(=O)(=O)N3CC(C#N)C3)nc3cc(F)ccc23)n[nH]1` [Embodiment 215, 1-(((3-exo)-3-((7-fluoro-4-((5-methyl-1H-pyrazol-3-yl)amino)quinazolin-2-yl)amino)-8-azabicyclo[3.2.1]oct-8-yl)sulfonyl)azetindin-3-formonitrile], the IC50 at TYK2 was 0.27 nM; in assay [1] (setting [2]), 24.1 nM; at JAK1, 0.12 nM.
On to `Cc1cc(Nc2nc(N[C@@H]3C[C@H]4CC[C@@H](C3)N4S(=O)(=O)N3CC(C#N)C3)nc3cccnc23)n[nH]1` [Embodiment 220, 1-(((3-exo)-3-((4-((5-methyl-1H-pyrazol-3-yl)amino)pyrido[3,2-d]pyrimidin-2-yl)amino)-8-azabicyclo[3.2.1]oct-8-yl)sulfonyl)azetindin-3-formonitrile], for which the IC50 at TYK2 amounted to 4.27 nM; in assay [1] (setting [2]) it was 10.2 nM; on JAK1, 0.67 nM.
Regarding `CN(c1nc(Nc2cc(CO)[nH]n2)c2ccc(Cl)cc2n1)[C@@H]1C[C@H]2CCC[C@@H](C1)N2CCC#N` [Embodiment 235, 3-((3-exo)-3-((7-chloro-4-((5-(hydroxymethyl)-1H-pyrazol-3-yl)amino)quinazolin-2-yl)(methyl)amino)-9-azabicyclo[3.3.1]non-9-yl)propionitrile], the half-inhibitory concentration (IC50) on TYK2 was found to be 2.71 nM; in assay [1] (setting [2]), 44.4 nM; on JAK1, 3.33 nM.
On to `Cc1cc(Nc2nc(N(C)[C@@H]3C[C@H]4CC[C@@H](C3)N4S(=O)(=O)N3CC(C#N)C3)nc3sc(C)cc23)n[nH]1` [Embodiment 240, 1-(((3-exo)-3-(methyl(6-methyl-4-((5-methyl-1H-pyrazol-3-yl)amino)thieno[2,3-d]pyrimidin-2-yl)amino)-8-azabicyclo[3.2.1]oct-8-yl)sulfonyl)azetindin-3-formonitrile], for which the IC50 was determined as 0.68 nM on TYK2, 14.4 nM in assay [1] (setting [2]) and 0.49 nM on JAK1.
As for `Cc1cc(Nc2nc(N(C)[C@@H]3C[C@H]4CC[C@@H](C3)N4C(=O)CN3CCOCC3)nc3sccc23)n[nH]1` [Embodiment 245, 1-((3-exo)-3-(methyl(4-((5-methyl-1H-pyrazol-3-yl)amino)thieno[2,3-d]pyrimidin-2-yl)amino)-8-azabicyclo[3.2.1]oct-8-yl)-2-morpholinoethane-1-one], the half-maximal inhibitory concentration (IC50) on TYK2 amounted to 2.76 nM; in assay [1] (INF-a 1000 U/mL stimulation), 16.7 nM; on JAK1, 2.77 nM.
Take `Cc1cc(Nc2nc(N[C@@H]3C[C@H]4CC[C@@H](C3)N4C(=O)[C@H]3CCCN3)nc3sccc23)n[nH]1` [Embodiment 248, ((3-exo)-3-((4-((5-methyl-1H-pyrazol-3-yl)amino)thieno[2,3-d]pyrimidin-2-yl)amino)-9-azabicyclo[3.3.1]non-9-yl) ((R)-pyrrolidin-2-yl)methanone]: the IC50 stood at 0.36 nM on TYK2, 43.5 nM in assay [1] (setting [2]) and 0.44 nM at JAK1.
With `Cc1cc(Nc2nc(N[C@@H]3C[C@H]4CCC[C@@H](C3)N4C(=O)[C@H]3COCCN3)nc3sccc23)n[nH]1` [Embodiment 250, ((3-exo)-3-((4-((5-methyl-1H-pyrazol-3-yl)amino)thieno[2,3-d]pyrimidin-2-yl)amino)-9-azabicyclo[3.3.1]non-9-yl)((R)-morpholine-3-yl)methanone], the results for the 50% inhibitory concentration (IC50) (on TYK2; in assay [1] (setting [2]); on JAK1) were 0.07 nM, 7.3 nM and 0.04 nM, respectively.
As to `Cc1cc(Nc2cc3ncccc3c(N[C@@H]3C[C@H]4CC[C@@H](C3)N4S(=O)(=O)c3cn[nH]c3)n2)n[nH]1` [Embodiment 315, N5-((3-exo)-8-((1H-pyrazol-4-yl)sulfonyl)-8-azabicyclo[3.2.1]oct-3-yl)-N7-(5-methyl-1H-pyrazol-3-yl)-1,6-diazanaphthalen-5,7-diamine], the half-inhibitory concentration (IC50) is over 100 nM at TYK2 and 13.1 nM at JAK1.
